Measurements from patent US20250302809A1, “GLP1 PHARMACEUTICAL COMPOSITIONS” (Eli Lilly and Company, priority 2022, published 2025).

How the values were obtained:
[1] = aqueous solubility across the physiologic pH range and in simulated physiological fluids; format: physicochemical; conditions: across the physiologic pH range as well as in simulated physiological fluids
pKa of GLP1RA = format: physicochemical; conditions: weak acid

Cc1cc(-n2nc3c(c2-n2ccn(-c4ccc5c(cnn5C)c4F)c2=O)[C@H](C)N(C(=O)c2cc4cc([C@H]5CCOC(C)(C)C5)ccc4n2[C@@]2(c4noc(=O)[nH]4)C[C@@H]2C)CC3)cc(C)c1F [GLP1RA, 3-[(1S,2S)-1-[5-[(4S)-2,2-dimethyloxan-4-yl]-2-[(4S)-2-(4-fluoro-3,5-dimethylphenyl)-3-[3-(4-fluoro-1-methylindazol-5-yl)-2-oxoimidazol-1-yl]-4-methyl-6,7-dihydro-4H-pyrazolo[4,3-c]pyridine-5-carbonyl]indol-1-yl]-2-methylcyclopropyl]-4H-1,2,4-oxadiazol-5-one]
aqueous solubility [1]: very low | pKa (pKa of GLP1RA): 5.1
